According to patent US10414754B2, “Indolizine compounds, a process for their preparation and pharmaceutical compositions containing them” (LES LABORATOIRES SERVIER, priority 2013, dated 2019):
Structures can show the parent of a compound that is named as a salt.

How the values were obtained:
[1] = test system: RS4;11 leukaemia tumour line; assay: In vitro cytotoxicity (MTT) on RS4;11; type: cell-based; settings: Homo sapiens; RS4;11 cells, 48 hours exposure
Protocol: The cytotoxicity studies were carried out on the RS4;11 leukaemia tumour line.
The cells are distributed onto microplates and exposed to the test compounds for 48 hours.
The cell viability is then quantified by a colorimetric assay, the Microculture Tetrazolium Assay (Cancer Res., 1987, 47, 939-942).

Bcl-2 protein = molecular target: T1, Bcl-2 protein (histag-Bcl-2, UniProtKB P10415) (Homo sapiens, UniProt P10415); assay: Inhibition of Bcl-2 by the fluorescence polarisation technique; type: binding; settings: fluorescence polarisation, 2 hours incubation; read-out: IC50 (nM) Bcl-2 FP
T1 construct: His tag
T1 sequence (P10415 whole entry): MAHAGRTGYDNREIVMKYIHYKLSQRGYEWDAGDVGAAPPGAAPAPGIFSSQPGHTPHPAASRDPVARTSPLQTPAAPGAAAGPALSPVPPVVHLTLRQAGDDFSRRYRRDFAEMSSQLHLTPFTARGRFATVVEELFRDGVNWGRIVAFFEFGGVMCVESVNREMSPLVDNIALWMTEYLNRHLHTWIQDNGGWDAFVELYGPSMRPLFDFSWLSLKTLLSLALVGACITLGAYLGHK
Method in brief: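 Fluorescence polarisation competition: His-tagged human Bcl-2 (2.50×10^−8 M final) was mixed with fluorescein-labelled peptide (1.00×10^−8 M final) and increasing compound concentrations. Buffer was 10 mM Hepes, 150 mM NaCl, 0.05% Tween20, pH 7.4. Polarisation was read after 2 h.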

SMILES	IC50 [1] [nM]	IC50 (Bcl-2 protein) [nM]
COC1CN(CC[C@@H]2Cc3ccccc3CN2C(=O)c2cc3c(cc2-c2cc(C(=O)N(c4ccccc4)c4ccc(O)cc4)c4n2CCCC4)OCO3)C1 [Example 44, N-(4-Hydroxyphenyl)-3-(6-{[(3S)-3-[2-(3-methoxyazetidin-1-yl)ethyl]-3,4-dihydroisoquinolin-2(1H)-yl]carbonyl}-1,3-benzodioxol-5-yl)-N-phenyl-5,6,7,8-tetrahydroindolizine-1-carboxamide]	8.56	2.9
C[C@@H]1Cc2ccccc2CN1C(=O)c1cc2c(cc1-c1cc(C(=O)N(c3ccc(O)cc3)c3cnn(CCN4CCOCC4)c3)c3ccccn13)OCO2 [Example 45, N-(4-Hydroxyphenyl)-3-(6-{[(3R)-3-methyl-3,4-dihydroisoquinolin-2(1,H)-yl]carbonyl}-1,3-benzodioxol-5-yl)-N-{1-[2-(morpholin-4-yl)ethyl]-1H-pyrazol-4-yl}indolizine-1-carboxamide hydrochloride]	63.8	3.8
C[C@@H]1Cc2ccccc2CN1C(=O)c1cc2c(cc1-c1cc(C(=O)N(c3ccc(O)cc3)c3ccncc3F)c3ccccn13)OCO2 [Example 46, N-(3-Fluoropyridin-4-yl)-N-(4-hydroxyphenyl)-3-(6-{[(3R)-3-methyl-3,4-dihydroisoquinolin-2(1H)-yl]carbonyl}-1,3-benzodioxol-5-yl)indolizine-1-carboxamide hydrochloride]	27.9	4.1
C[C@@H]1Cc2ccccc2CN1C(=O)c1ccc(Cl)cc1-c1cc(C(=O)N(c2ccc(O)cc2)c2cnn(C)c2)c2n1CCCC2 [Example 47, 3-(5-Chloro-2-{[(3R)-3-methyl-3,4-dihydroisoquinolin-2(1H)-yl]-carbonyl}phenyl)-N-(4-hydroxyphenyl)-N-(1-methyl-1H-pyrazol-4-yl)-5,6,7,8-tetrahydroindolizine-1-carboxamide]	90.1	4.3
C[C@@H]1Cc2ccccc2CN1C(=O)c1cc2c(cc1-c1cc(C(=O)N(c3ccc(O)cc3)c3cnn(C)c3)c3n1CCCC3)OCCO2 [Example 48, N-(4-Hydroxyphenyl)-3-(7-{[(3R)-3-methyl-3,4-dihydroisoquinolin-2(1H)-yl]carbonyl}-2,3-dihydro-1,4-benzodioxin-6-yl)-N-(1-methyl-1H-pyrazol-4-yl)-5,6,7,8-tetrahydroindolizine-1-carboxamide]	24.7	3.6
C[C@@H]1Cc2ccccc2CN1C(=O)c1ccc(Cl)cc1-c1cc(C(=O)N(c2ccncc2)c2ccc(O)cc2)c2ccccn12 [Example 49, 3-(5-Chloro-2-{[(3R)-3-methyl-3,4-dihydroisoquinolin-2(1H)-yl]-carbonyl}phenyl)-N-(4-hydroxyphenyl)-N-(pyridin-4-yl)indolizine-1-carboxamide hydrochloride]	84.7	3.7
CC[C@@H]1Cc2ccccc2CN1C(=O)c1ccc(Cl)cc1-c1cc(C(=O)N(c2ccc(O)cc2)c2cnc3c(ccn3C)c2)c2ccccn12 [Example 50, 3-(5-Chloro-2-{[(3R)-3-ethyl-3,4-dihydroisoquinolin-2(1H)-yl]-carbonyl}phenyl)-N-(4-hydroxyphenyl)-N-(1-methyl-1H-pyrrolo[2,3-b]pyridin-5-yl)indolizine-1-carboxamide]	28.2	2.2
C[C@@H]1Cc2ccccc2CN1C(=O)c1cc2c(cc1-c1cc(C(=O)N(c3ccc(O)cc3)c3ccn4ccnc4c3)c3ccccn13)OCO2 [Example 51, N-(4-Hydroxyphenyl)-N-(imidazo[1,2-a]pyridin-7-yl)-3-(6-{[(3R)-3-methyl-3,4-dihydroisoquinolin-2(1H)-yl]carbonyl}-1,3-benzodioxol-5-yl)indolizine-1-carboxamide hydrochloride]	68.8	4.8
C[C@@H]1Cc2ccccc2CN1C(=O)c1ccccc1-c1cc(C(=O)N(c2ccc(O)cc2)c2cnc3c(ccn3C)c2)c2ccccn12 [Example 52, N-(4-Hydroxyphenyl)-3-(2-{[(3R)-3-methyl-3,4-dihydroisoquinolin-2(1H)-yl]carbonyl}phenyl)-N-(1-methyl-1H-pyrrolo[2,3-b]pyridin-5-yl)indolizine-1-carboxamide]	20.9	7.9
Cc1cn2ccc(N(C(=O)c3cc(-c4cc5c(cc4C(=O)N4Cc6ccccc6C[C@H]4C)OCO5)n4ccccc34)c3ccc(O)cc3)cc2n1 [Example 53, N-(4-Hydroxyphenyl)-3-(6-{[(3R)-3-methyl-3,4-dihydroisoquinolin-2(1H)-yl]carbonyl}-1,3-benzodioxol-5-yl)-N-(2-methylimidazo[1,2-a]pyridin-7-yl)indolizine-1-carboxamide hydrochloride]	70.9	5.4
Cc1ccc(N(C(=O)c2cc(-c3cc4c(cc3C(=O)N3Cc5ccccc5C[C@H]3C)OCO4)n3ccccc23)c2ccc(O)cc2)cn1 [Example 54, N-(4-Hydroxyphenyl)-3-(6-{[(3R)-3-methyl-3,4-dihydroisoquinolin-2(1H)-yl]carbonyl}-1,3-benzodioxol-5-yl)-N-(6-methylpyridin-3-yl)indolizine-1-carboxamide hydrochloride]	45	6.6
C[C@@H]1Cc2ccccc2CN1C(=O)c1cc2c(cc1-c1cc(C(=O)N(c3ccc(O)cc3)c3cncc(F)c3)c3ccccn13)OCO2 [Example 55, N-(5-Fluoropyridin-3-yl)-N-(4-hydroxyphenyl)-3-(6-{[(3R)-3-methyl-3,4-dihydroisoquinolin-2(1H)-yl]carbonyl}-1,3-benzodioxol-5-yl)indolizine-1-carboxamide]	22.8	5.5
COc1cc(N(C(=O)c2cc(-c3cc4c(cc3C(=O)N3Cc5ccccc5C[C@H]3C)OCO4)n3ccccc23)c2ccc(O)cc2)ccn1 [Example 56, N-(4-Hydroxyphenyl)-N-(2-methoxypyridin-4-yl)-3-(6-{[(3R)-3-methyl-3,4-dihydroisoquinolin-2(1H)-yl]carbonyl}-1,3-benzodioxol-5-yl)indolizine-1-carboxamide]	36.7	4.7
O=C(c1cc2c(cc1-c1cc(C(=O)N(c3ccccc3)c3ccc(O)cc3)c3n1CCCC3)OCO2)N1CCc2ccccc2C1 [Example 57, 3-[6-(3,4-Dihydroisoquinolin-2(1H)-ylcarbonyl)-1,3-benzodioxol-5-yl]-N-(4-hydroxyphenyl)-N-phenyl-5,6,7,8-tetrahydroindolizine-1-carboxamide]	282	21.2
CC(C)c1cc(N(C(=O)c2cc(-c3cc4c(cc3C(=O)N3Cc5ccccc5C[C@H]3C)OCO4)n3ccccc23)c2ccc(O)cc2)ccn1 [Example 58, N-(4-Hydroxyphenyl)-3-(6-{[(3R)-3-methyl-3,4-dihydroisoquinolin-2(1H)-yl]carbonyl}-1,3-benzodioxol-5-yl)-N-[2-(propan-2-yl)pyridin-4-yl)indolizine-1-carboxamide hydrochloride]	68.5	6.4
C[C@@H]1Cc2ccccc2CN1C(=O)c1cc2c(cc1-c1cc(C(=O)N(c3ccc(O)cc3)c3cnc4ccnn4c3)c3ccccn13)OCO2 [Example 59, N-(4-Hydroxyphenyl)-3-(6-{[(3R)-3-methyl-3,4-dihydroisoquinolin-2(1H)-yl]carbonyl}-1,3-benzodiaxol-5-yl)-N-(pyrazolo[1,5-a]pyrimidin-6-yl)indolizine-1-carboxamide]	21.2	4
